From paper PMC3904209 (AMB Express, 2014)

Assays:
Details in all cases: 50 mM KHCO3, 50 mM HEPES, 50 mM Na2SO4, 50 mM MgSO4, pH 6, 1°C
CaaB = biological target: T1, CaaB (Cupriavidus necator, UniProt Q0JYI9)
T1 construct: gene caa

Can2 = Can2 (Cupriavidus necator, UniProt Q0JYX2)
Caa = Caa (Cupriavidus necator, UniProt Q0JYI9)
Can = Can (Cupriavidus necator, UniProt Q0KFA0)
Cag = biological target: T2, Cag (Cupriavidus necator, UniProt Q0KCD8)
T2 construct: gene H16_A1192
T2 sequence (Q0KCD8 1-174): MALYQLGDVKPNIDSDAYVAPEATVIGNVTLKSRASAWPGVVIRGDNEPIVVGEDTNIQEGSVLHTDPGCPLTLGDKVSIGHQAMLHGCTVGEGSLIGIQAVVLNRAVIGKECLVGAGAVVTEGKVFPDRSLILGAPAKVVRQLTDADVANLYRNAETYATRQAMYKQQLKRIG

T1 sequence (Q0JYI9 24-249): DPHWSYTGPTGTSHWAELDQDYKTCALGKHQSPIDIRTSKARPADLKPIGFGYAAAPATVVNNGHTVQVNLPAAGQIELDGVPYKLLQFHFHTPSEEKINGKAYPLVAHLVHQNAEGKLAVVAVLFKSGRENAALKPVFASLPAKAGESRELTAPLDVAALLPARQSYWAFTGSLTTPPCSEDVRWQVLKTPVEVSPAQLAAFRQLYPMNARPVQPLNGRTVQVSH
Chain of Caa (Q0JYI9 1-249): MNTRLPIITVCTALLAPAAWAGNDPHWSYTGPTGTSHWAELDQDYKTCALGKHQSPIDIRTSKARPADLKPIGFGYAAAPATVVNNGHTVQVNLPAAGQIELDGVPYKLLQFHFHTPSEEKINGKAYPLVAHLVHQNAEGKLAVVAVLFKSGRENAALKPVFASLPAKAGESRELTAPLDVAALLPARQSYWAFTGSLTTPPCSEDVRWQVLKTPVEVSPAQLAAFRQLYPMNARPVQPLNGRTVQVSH
Chain of Can (Q0KFA0 1-223): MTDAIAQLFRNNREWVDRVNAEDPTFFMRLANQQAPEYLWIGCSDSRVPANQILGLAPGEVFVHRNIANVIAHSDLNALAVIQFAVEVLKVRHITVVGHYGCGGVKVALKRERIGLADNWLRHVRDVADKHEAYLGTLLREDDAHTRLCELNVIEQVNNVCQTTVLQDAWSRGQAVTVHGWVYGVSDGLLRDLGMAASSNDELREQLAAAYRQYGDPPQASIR
Chain of Can2 (Q0JYX2 1-235): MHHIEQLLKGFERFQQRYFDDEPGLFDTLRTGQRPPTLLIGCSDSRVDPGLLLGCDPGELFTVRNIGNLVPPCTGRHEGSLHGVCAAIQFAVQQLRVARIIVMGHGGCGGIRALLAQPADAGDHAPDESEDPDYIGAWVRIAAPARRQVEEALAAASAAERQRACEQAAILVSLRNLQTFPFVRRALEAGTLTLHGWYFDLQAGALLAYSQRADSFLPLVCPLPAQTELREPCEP

## O=C(O)O [bicarbonate]
CaaB
  stopped-flow pH-indicator (phenol red, A557nm) assay: (CaaB) exhibited similar activity values when compared to the purified, Strep-tagged Caa enzyme
Can2
  stopped-flow pH-indicator (phenol red, A557nm) assay: the specific activities of both Can and Can2 were similar with bicarbonate as a substrate
Caa
  stopped-flow pH-indicator (phenol red, A557nm) assay: All CAs were active towards CO2 and bicarbonate
Can
  stopped-flow pH-indicator (phenol red, A557nm) assay: the specific activities of both Can and Can2 were similar with bicarbonate as a substrate
Cag
  stopped-flow pH-indicator (phenol red, A557nm) assay: Cag presented the highest activity using bicarbonate as a carbon source
